What was measured:
PDE7A = PDE7A (Homo sapiens (Human), UniProt Q13946); test: PDE7A assay: inhibition of PDE7A hydrolysis of [3H]cAMP to [3H]AMP (scintillation proximity, yttrium silicate beads); assay type: biochemical; conditions: 16 nM [3H]cAMP, 30° C., 20 minutes; read-out: PDE 7A IC50
Experimental: (§1) PDE7A and PDE7B Assay. Compounds were tested for their activity by measuring the inhibition of PDE7A or PDE7B hydrolysis of [3H]cAMP to [3H]AMP. Generally, eight dilutions of compound were assayed in 50 mM Tris-HCl pH 7.5, 8.3 mM MgCl2, 0.5 mg/mL BSA, 1.7 mM EGTA, 16 nM [3H]cAMP, and 1% DMSO. PDE7A or PDE7B (typically 1-5 ng/mL) (BPS BioSciences, CA) is added to initiate the reaction. The reaction was incubated at 30° C. for 20 minutes. PDE7A and PDE7B hydrolysis was terminated by the addition of yttrium silicate beads (GE Healthcare, RPNQ0150) and counted on a Wallac Microbeta scintillation counter, 1-2 hours following the addition of the beads. Data was analyzed using XLfit […] from which ICso values were obtained.

PDE7B = PDE7B (Homo sapiens (Human), UniProt Q9NP56); test: PDE7B assay: inhibition of PDE7B hydrolysis of [3H]cAMP to [3H]AMP (scintillation proximity, yttrium silicate beads); assay type: biochemical; conditions: 16 nM [3H]cAMP, 30° C., 20 minutes; read-out: PDE 7B IC50
Experimental: as §1

PDE7B, sequence (Q9NP56 whole entry): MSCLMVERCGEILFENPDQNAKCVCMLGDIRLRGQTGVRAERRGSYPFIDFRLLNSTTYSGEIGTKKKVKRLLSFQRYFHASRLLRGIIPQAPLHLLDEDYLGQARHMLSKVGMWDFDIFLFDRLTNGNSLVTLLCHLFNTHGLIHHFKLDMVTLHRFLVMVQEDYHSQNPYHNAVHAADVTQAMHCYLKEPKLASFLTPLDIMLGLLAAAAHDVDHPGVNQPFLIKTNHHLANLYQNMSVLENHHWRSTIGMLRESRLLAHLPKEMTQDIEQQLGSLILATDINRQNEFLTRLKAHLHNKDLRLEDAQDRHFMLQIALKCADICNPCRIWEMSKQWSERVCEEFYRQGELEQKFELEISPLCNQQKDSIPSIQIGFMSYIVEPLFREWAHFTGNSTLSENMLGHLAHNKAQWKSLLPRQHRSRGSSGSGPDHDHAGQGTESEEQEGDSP
PDE7A, sequence (Q13946 whole entry): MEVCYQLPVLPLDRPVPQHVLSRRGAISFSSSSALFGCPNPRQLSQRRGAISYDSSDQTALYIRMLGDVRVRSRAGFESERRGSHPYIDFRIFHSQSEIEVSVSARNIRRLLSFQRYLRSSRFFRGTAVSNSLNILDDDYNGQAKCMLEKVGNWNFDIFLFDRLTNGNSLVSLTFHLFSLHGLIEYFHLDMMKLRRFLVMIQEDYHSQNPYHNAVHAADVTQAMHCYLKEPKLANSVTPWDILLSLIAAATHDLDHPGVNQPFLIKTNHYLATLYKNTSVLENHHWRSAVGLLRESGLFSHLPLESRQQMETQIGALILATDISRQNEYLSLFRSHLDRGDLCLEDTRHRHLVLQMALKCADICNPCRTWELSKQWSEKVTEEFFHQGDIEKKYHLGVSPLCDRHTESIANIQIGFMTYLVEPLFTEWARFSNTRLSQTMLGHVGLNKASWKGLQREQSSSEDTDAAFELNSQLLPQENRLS

Structure (SMILES)	IC50 (PDE7A)	IC50 (PDE7B)
Cc1nn(CC2CCC2)c2sc(C(=O)N[C@H]3CC[C@H](N4CCN(C5CC5)CC4)CC3)cc12 [II-20, 1-(cyclobutylmethyl)-N-((1r,4r)-4-(4-cyclopropylpiperazin-1-yl)cyclohexyl)-3-methyl-1H-thieno [2,3-c]pyrazole-5-carboxamide]	30 to 100 nM	100 to 500 nM
Cc1nn(CC2CCC2)c2sc(C(=O)N[C@H]3CC[C@H](N4CCN(CC(F)(F)F)CC4)CC3)cc12 [II-21, 1-(cyclobutylmethyl)-3-methyl-N-((1r,4r)-4-(4-(2,2,2-trifluoro-ethyl)piperazin-1-yl)-cyclohexyl)-1H-thieno[2,3-c]pyrazole-5-carboxamide]	10 to 30 nM	30 to 100 nM
Cc1nn(CC2CCC2)c2sc(C(=O)N[C@H]3CC[C@H](N4CC(F)(F)C4)CC3)cc12 [II-22, 1-(cyclobutylmethyl)-N-((1r,4r)-4-(3,3-difluoroazetidin-1-yl)cyclohexyl)-3-methyl-1H-thieno [2,3-c]pyrazole-5-carboxamide]	30 to 100 nM	30 to 100 nM
CC(=S)N1CCN([C@H]2CC[C@H](NC(=O)c3cc4c(C)nn(CC(C)C)c4s3)CC2)CC1 [II-23, N-((1r,4r)-4-(4-ethanethioylpiperazin-1-yl)cyclohexyl)-1-isobutyl-3-methyl-1H-thieno[2,3-c]pyrazole-5-carboxamide]	10 to 30 nM	30 to 100 nM
Cc1nn(CC(C)(C)C)c2sc(C(=O)N[C@H]3CC[C@H](N4CCN(C5CC5)CC4)CC3)cc12 [II-24, N-((1r,4r)-4-(4-cyclo-propylpiperazin-1-yl)-cyclohexyl)-3-meth-yl-1-neopentyl-1H-thieno[2,3-c]pyrazole-5-carboxamide]	< 10 nM	< 10 nM
Cc1nn(CC(C)(C)C)c2sc(C(=O)N[C@H]3C[C@H](N4CCOCC4)C3)cc12 [II-25, 3-methyl-N-((1r,3r)-3-morpholinocyclo-butyl)-1-neopentyl-1H-thieno[2,3-c]pyr-azole-5-carboxamide]	10 to 30 nM	30 to 100 nM
Cc1nn(C2CCC(F)(F)CC2)c2sc(C(=O)N[C@H]3CC[C@H](N4CCC(F)(F)C4)CC3)cc12 [II-26, 1-(4,4-difluorocyclo-hexyl)-N-((1r,4r)-4-(3,3-difluoropyrrol-idin-1-yl)cyclohexyl)-3-methyl-1H-thieno [2,3-c]pyrazole-5-carboxamide]	< 10 nM	< 10 nM
Cc1nn(CC(C)(C)C)c2sc(C(=O)N[C@H]3CC[C@H](N4CCC(F)(F)C4)CC3)cc12 [II-27, N-((1r,4r)-4-(3,3-difluoropyrrolidin-1-yl)cyclohexyl)-3-methyl-1-neopentyl-1H-thieno[2,3-c]pyr-azole-5-carboxamide]	< 10 nM	< 10 nM
Cc1nn(CC(C)(C)C)c2sc(C(=O)N[C@H]3CC[C@H](N4CCN(CC(F)F)CC4)CC3)cc12 [II-28, N-((1r,4r)-4-(4-(2,2-difluoroethyl)piper-azin-1-yl)cyclohex-yl)-3-methyl-1-neo-pentyl-1H-thieno [2,3-c]pyrazole-5-carboxamide]	10 to 30 nM	10 to 30 nM
CC(=O)N1CCN([C@H]2C[C@H](NC(=O)c3cc4c(C)nn(C5CCC(F)(F)CC5)c4s3)C2)CC1 [II-29, N-((1r,3r)-3-(4-acet-ylpiperazin-1-yl)-cyclobutyl)-1-(4,4-difluorocyclohexyl)-3-methyl-1H-thieno [2,3-c]pyrazole-5-carboxamide]	10 to 30 nM	10 to 30 nM
Cc1nn(CC(C)(C)C)c2sc(C(=O)N[C@H]3CC[C@H](N4CC(F)(F)C4)CC3)cc12 [II-30, N-((1r,4r)-4-(3,3-difluoroazetidin-1-yl)cyclohexyl)-3-methyl-1-neopentyl-1H-thieno[2,3-c]pyr-azole-5-carboxamide]	< 10 nM	< 10 nM
Cc1nn(CC(C)(C)C)c2sc(C(=O)N[C@H]3CC[C@H](N4CCN(C(C)C)CC4)CC3)cc12 [II-31, N-((1r,4r)-4-(4-iso-propylpiperazin-1-yl)cyclohexyl)-3-methyl-1-neopentyl-1H-thieno[2,3-c]pyr-azole-5-carboxamide]	< 10 nM	< 10 nM
Cc1nn(CC(C)(C)C)c2sc(C(=O)N[C@H]3CC[C@H](N4CCOCC4)CC3)cc12 [II-32, 3-methyl-N-((1r,4r)-4-morpholinocyclo-hexyl)-1-neopentyl-1H-thieno[2,3-c]pyr-azole-5-carboxamide]	< 10 nM	< 10 nM
Cc1nn(C2CCC(F)(F)CC2)c2sc(C(=O)N[C@H]3C[C@H](N4CCN(C5CC5)CC4)C3)cc12 [II-33, N-((1r,3r)-3-(4-cyclo-propylpiperazin-1-yl)cyclobutyl)-1-(4,4-difluorocyclohexyl)-3-methyl-1H-thieno [2,3-c]pyrazole-5-carboxamide]	10 to 30 nM	10 to 30 nM
Cc1nn(CC(C)(C)C)c2sc(C(=O)N[C@H]3C[C@H](N4CCN(C5CC5)CC4)C3)cc12 [II-34, N-((1r,3r)-3-(4-cyclo-propylpiperazin-1-yl)cyclobutyl)-3-methyl-1-neopentyl-1H-thieno[2,3-c] pyrazole-5-carbox-amide]	10 to 30 nM	30 to 100 nM
Cc1nn(CC(C)(C)C)c2sc(C(=O)Nc3ccc(N4CCOCC4)nc3)cc12 [II-35, 3-methyl-N-(6-morpholinopyridin-3-yl)-1-neopentyl-1H-thieno[2,3-c]pyr-azole-5-carboxamide]	10 to 30 nM	10 to 30 nM
Cc1nn(CC(C)(C)C)c2sc(C(=O)N[C@H]3CC[C@H](N4CC(C#N)C4)CC3)cc12 [II-36, N-((1r,4r)-4-(3-cyanoazetidin-1-yl)-cyclohexyl)-3-meth-yl-1-neopentyl-1H-thieno[2,3-c]pyr-azole-5-carboxamide]	< 10 nM	< 10 nM
CC(=O)N1CCN([C@H]2CC[C@H](NC(=O)c3cc4c(C)nn(CC(C)(C)C)c4s3)CC2)CC1 [II-37, N-((1r,4r)-4-(4-acet-ylpiperazin-1-yl)-cyclohexyl)-3-meth-yl-1-neopentyl-1H-thieno[2,3-c]pyr-azole-5-carboxamide]	< 10 nM	< 10 nM
Cc1nn(CC(C)(C)C)c2sc(C(=O)Nc3cnc(N4CCOCC4)c(Cl)c3)cc12 [II-38, N-(5-chloro-6-morpholinopyridin-3-yl)-3-methyl-1-neopentyl-1H-thieno [2,3-c]pyrazole-5-carboxamide]	100 to 500 nM	500 to 2500 nM
Cc1nn(C2CCC(F)(F)CC2)c2sc(C(=O)N[C@H]3C[C@@H](N4CCC(F)(F)C4)C3)cc12 [II-39, 1-(4,4-difluorocyclo-hexyl)-N-((1s,3s)-3-(3,3-difluoropyrrol-idin-1-yl)cyclobutyl)-3-methyl-1H-thieno [2,3-c]pyrazole-5-carboxamide]	30 to 100 nM	30 to 100 nM
Cc1nn(CC(C)(C)C)c2sc(C(=O)Nc3ccc(N4CCOCC4)c(C#N)c3)cc12 [II-40, N-(3-cyano-4-mor-pholinophenyl)-3-methyl-1-neopentyl-1H-thieno[2,3-c]pyr-azole-5-carboxamide]	100 to 500 nM	100 to 500 nM
Cc1nn(C2CCC(F)(F)CC2)c2sc(C(=O)N[C@H]3CC[C@H](N4CC(OC(F)F)C4)CC3)cc12 [II-41, 1-(4,4-difluorocyclo-hexyl)-N-((1r,4r)-4-(3-(difluorometh-oxy)azetidin-1-yl)-cyclohexyl)-3-methyl-1H-thieno [2,3-c]pyrazole-5-carboxamide]	10 to 30 nM	< 10 nM
Cc1nn(CC(C)(C)C)c2sc(C(=O)N[C@H]3CC[C@H](N4CC(OC(F)F)C4)CC3)cc12 [II-42, N-((1r,4r)-4-(3-(difluoromethoxy)-azetidin-1-yl)cyclo-hexyl)-3-methyl-1-neopentyl-1H-thieno [2,3-c]pyrazole-5-carboxamide]	< 10 nM	< 10 nM
Cc1nn(CC(C)C)c2sc(C(=O)N[C@H]3CC[C@H](N4CC(C#N)C4)CC3)cc12 [II-43, N-((1r,4r)-4-(3-cyanoazetidin-1-yl)-cyclohexyl)-1-iso-butyl-3-methyl-1H-thieno[2,3-c]pyrazole-5-carboxamide]	10 to 30 nM	10 to 30 nM
Cc1nn(CC(C)C)c2sc(C(=O)N[C@H]3CC[C@H](N4CC(OC(F)F)C4)CC3)cc12 [II-44, N-((1r,4r)-4-(3-(difluoromethoxy)-azetidin-1-yl)cyclo-hexyl)-1-isobutyl-3-methyl-1H-thieno [2,3-c]pyrazole-5-carboxamide]	30 to 100 nM	100 to 500 nM
COC1CN([C@H]2CC[C@H](NC(=O)c3cc4c(C)nn(CC(C)(C)C)c4s3)CC2)C1 [II-45, N-((1r,4r)-4-(3-methoxyazetidin-1-yl)cyclohexyl)-3-methyl-1-neopentyl-1H-thieno[2,3-c]pyr-azole-5-carboxamide]	< 10 nM	10 to 30 nM

Source: patent publication US20250066383A1, “PDE 7 MODULATOR COMPOUNDS” (Omeros Corporation, priority 2023, published 2025)
